Assays:
[1] = molecular target: Rho-associated protein kinase 2 (Homo sapiens, UniProt O75116); assay: Inhibition of recombinant human N-terminal GST-tagged ROCK2 catalytic domain (1 to 553 residues) expressed in baculovirus expression system using STK 2-biotin as substrate measured after 60 mins by HTRF/TR-FRET assay
CYP3A4 = CYP3A4 (Homo sapiens, UniProt P08684); assay: Inhibition of CYP3A4 (unknown origin) at 10 uM; format: ADME
[2] = molecular target: Protein kinase C alpha type (Homo sapiens, UniProt P17252); assay: Inhibition of human PKCalpha active using MBP as substrate after 60 mins in presence of [gamma-32]ATP by scintillation counting

CYP3A4, sequence (P08684 whole entry): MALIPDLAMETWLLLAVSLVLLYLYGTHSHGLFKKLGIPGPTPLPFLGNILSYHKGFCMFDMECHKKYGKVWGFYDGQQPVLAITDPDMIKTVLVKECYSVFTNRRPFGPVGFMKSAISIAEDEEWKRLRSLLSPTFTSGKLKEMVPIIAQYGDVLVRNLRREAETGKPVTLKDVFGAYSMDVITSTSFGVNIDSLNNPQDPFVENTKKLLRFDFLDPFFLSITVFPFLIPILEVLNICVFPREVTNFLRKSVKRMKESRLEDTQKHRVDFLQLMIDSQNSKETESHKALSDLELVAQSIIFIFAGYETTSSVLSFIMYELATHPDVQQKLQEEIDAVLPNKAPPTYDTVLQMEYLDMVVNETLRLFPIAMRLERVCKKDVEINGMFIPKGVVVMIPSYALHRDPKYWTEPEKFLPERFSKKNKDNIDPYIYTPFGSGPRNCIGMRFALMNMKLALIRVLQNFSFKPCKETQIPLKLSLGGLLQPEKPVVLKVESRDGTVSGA
Rho-associated protein kinase 2, sequence (O75116 whole entry, the tested form may be a part): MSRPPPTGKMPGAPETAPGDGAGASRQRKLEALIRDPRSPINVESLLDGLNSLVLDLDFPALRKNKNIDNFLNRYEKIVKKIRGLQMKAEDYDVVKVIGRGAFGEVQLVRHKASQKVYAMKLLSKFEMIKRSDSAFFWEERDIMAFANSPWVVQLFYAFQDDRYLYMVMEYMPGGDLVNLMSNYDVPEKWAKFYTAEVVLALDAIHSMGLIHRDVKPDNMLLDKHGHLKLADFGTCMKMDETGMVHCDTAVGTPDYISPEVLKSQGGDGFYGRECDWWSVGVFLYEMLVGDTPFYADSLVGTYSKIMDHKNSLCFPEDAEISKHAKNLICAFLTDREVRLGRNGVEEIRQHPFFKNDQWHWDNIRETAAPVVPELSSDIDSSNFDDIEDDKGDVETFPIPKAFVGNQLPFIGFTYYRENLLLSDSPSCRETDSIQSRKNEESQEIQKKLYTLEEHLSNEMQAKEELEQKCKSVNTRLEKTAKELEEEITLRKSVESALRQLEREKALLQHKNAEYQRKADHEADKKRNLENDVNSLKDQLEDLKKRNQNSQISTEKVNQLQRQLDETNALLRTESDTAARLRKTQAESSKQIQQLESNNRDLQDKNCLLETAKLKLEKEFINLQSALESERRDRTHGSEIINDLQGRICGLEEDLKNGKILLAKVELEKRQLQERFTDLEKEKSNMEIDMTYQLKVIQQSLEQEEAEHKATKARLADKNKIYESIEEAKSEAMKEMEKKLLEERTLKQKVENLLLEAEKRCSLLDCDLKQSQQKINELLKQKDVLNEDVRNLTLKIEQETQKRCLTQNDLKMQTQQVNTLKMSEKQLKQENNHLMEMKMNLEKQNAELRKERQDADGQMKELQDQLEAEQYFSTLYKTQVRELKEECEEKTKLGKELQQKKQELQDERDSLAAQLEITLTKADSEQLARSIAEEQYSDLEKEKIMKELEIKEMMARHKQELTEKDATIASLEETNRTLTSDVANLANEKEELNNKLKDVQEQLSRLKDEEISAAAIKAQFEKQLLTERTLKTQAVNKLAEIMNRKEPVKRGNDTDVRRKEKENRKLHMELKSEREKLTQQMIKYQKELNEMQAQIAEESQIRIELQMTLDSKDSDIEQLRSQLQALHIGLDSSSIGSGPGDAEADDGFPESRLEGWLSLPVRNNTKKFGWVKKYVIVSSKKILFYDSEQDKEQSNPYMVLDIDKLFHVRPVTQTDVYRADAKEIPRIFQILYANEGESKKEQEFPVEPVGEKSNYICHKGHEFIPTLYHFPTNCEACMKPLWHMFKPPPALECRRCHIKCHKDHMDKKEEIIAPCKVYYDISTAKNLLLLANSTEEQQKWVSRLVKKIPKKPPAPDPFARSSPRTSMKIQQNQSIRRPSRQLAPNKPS

SMILES | IC50 [1] [nM] | inhibition at 10 µM (CYP3A4) [%] | IC50 [2] [nM]
O=C(NCc1c(F)cccc1F)c1cccc(NCc2nnc3n2CCOc2cnccc2-3)c1 | 190 | 49 | 
COc1ccccc1NCC(=O)N/N=C/c1ccncc1 | 7400 |  | 
O=C(NCc1ccccc1)c1cccc(NCc2ccn(-c3ccncc3)c2)c1 | 340 | 95 | 
CC(=O)Nc1cc(-c2nnc(CNc3cccc(C(=O)NCc4ccccc4C(F)(F)F)c3)n2C)ccn1 | > 10000 | 56 | 
O=C(CNc1cccc(Oc2ccccc2)c1)N/N=C1\CCCc2cnccc21 | 6200 |  | > 10000
O=C(CNc1cccc(OCc2ccccc2)c1)N/N=C1\CCCc2cnccc21 | > 10000 |  | > 10000
O=C(CNc1ccccc1Cl)N/N=C/c1ccncc1 | 2600 |  | 
COc1cccc(NCC(=O)N/N=C/c2ccncc2)c1 | 62 |  | 
O=C(CNc1cccc(C(=O)N2CCOCC2)c1)N/N=C1\CCCc2cnccc21 | > 10000 |  | 
O=C(CNc1ccccc1)N/N=C/c1ccncc1 | 640 |  | 
O=C(NCc1ccccc1)c1cccc(NCc2nnc(-c3ccncc3)n2Cc2ccccc2)c1 | 3200 | 87 | 
CNc1cc(-c2nnc(CNc3cccc(C(=O)NCc4c(F)cccc4F)c3)n2C)ccn1 | 7400 | 29 | 
O=C(CNc1cccc(C(=O)NCc2ccccc2)c1)N/N=C1\CCCc2cnccc21 | 58 |  | > 10000
CCOc1cccc(NCC(=O)N/N=C2\CCCc3cnccc32)c1 | 5700 |  | > 10000
O=C(CNc1ccccc1)N/N=C1\CCCc2cnccc21 | 1800 |  | 
Cn1c(CNc2cccc(C(=O)NCc3c(F)cccc3F)c2)nnc1-c1ccnc(NCCc2ccccc2)c1 | > 10000 | 69 | 
COc1cccc(NCC(=O)N/N=C2\CCCc3cnccc32)c1 | 390 |  | > 10000

The remaining lines, values ahead:

IC50 [1] [nM] | inhibition at 10 µM (CYP3A4) [%] | IC50 [2] [nM] | SMILES
20 | 95 | 3200 | COc1cccc(CNC(=O)c2cccc(NCc3nnc(-c4ccncc4)[nH]3)c2)c1
1700 | 100 | > 10000 | Clc1ccccc1NCc1nc(-c2ccncc2)n[nH]1
98 | 83 |  | O=S(=O)(NCc1ccccc1)c1cccc(NCc2nc(-c3ccncc3)n[nH]2)c1
2300 | 63 |  | NC(=O)OCc1cnccc1-c1n[nH]c(CNc2cccc(C(=O)NCc3ccccc3)c2)n1
540 |  |  | O=C(CNc1ccc(Cl)cc1)N/N=C/c1ccncc1
> 10000 | 27 |  | O=C(Nc1nc(-c2ccncc2)n[nH]1)c1ccc(Cl)cc1
900 | 93 |  | Clc1ccc(NCCc2nc(-c3ccncc3)n[nH]2)cc1
160 | 93 |  | O=C(NCc1ccccc1)c1cccc(NCc2c[nH]c(-c3ccncc3)n2)c1
270 | 96 |  | Clc1ccc(CNc2nc(-c3ccncc3)n[nH]2)cc1
1900 | 97 |  | Clc1ccc(CSc2nc(-c3ccncc3)n[nH]2)cc1
300 |  |  | O=C(CNc1cccc(Cl)c1)N/N=C/c1ccncc1
70 | 77 |  | CC(=O)Nc1cccc(NCc2nc(-c3ccncc3)n[nH]2)c1
1100 | 86 |  | O=S(=O)(Cc1ccccc1)c1cccc(NCc2nc(-c3ccncc3)n[nH]2)c1
170 | 87 |  | O=C(NCc1ccccc1)c1cccc(NCc2[nH]nc(-c3ccncc3)c2-c2ccccc2)c1
> 10000 | 100 |  | OCCc1cnccc1-c1n[nH]c(CNc2ccc(Cl)cc2)n1
3700 |  |  | COc1ccc(NCC(=O)N/N=C/c2ccncc2)cc1
5100 | 74 |  | c1ccc(CNCc2nc(-c3ccncc3)n[nH]2)cc1
590 | 100 |  | Clc1ccc(SCc2nc(-c3ccncc3)n[nH]2)cc1
1700 | 86 |  | Clc1cccc(OCc2n[nH]c(-c3ccncc3)n2)c1
